Earlier results, collected in US11331358B2, “Pharmaceutical composition and method of manufacturing” (CURE PHARMACEUTICAL HOLDING CORP., priority 2014, dated 2022).
≈ marks a conversion by molar mass, not a printed value. Like-named read-outs stand apart in the source and are kept apart here.

Details: for Solubility in alkaline solutions: alkaline solutions / alkalai; for Solubility in alkaline solutions / Solubility in alcohols, lipids and organic solvents: qualitative; for Solubility in alcohols, lipids and organic solvents: solvents as named in the value
[1] = qualitative (insol. / sp. sol. / sol)

Compound | Solubility in alkaline solutions | Solubility in alcohols, lipids and organic solvents | Solubility in water [1] | Solubility in water (23° C.)
CCCCCc1cc2c(c(O)c1C(=O)O)C1C3C(CCC3(C)O2)C1(C)C (stereo not shown) [cannabicyclolic acid (CBLA), cannabicyclolic acid] | sol | sol. alcohols | sol | –
CCCCCc1cc(O)c2c(c1)OC1(C)CCC3C1C2C3(C)C (stereo not shown) [cannabicyclol (CBL), cannabicyclol] | – | sol. pentane | insol. | –
CCCCCc1cc2c(c(O)c1C(=O)O)C1C=C(C)CC[C@H]1C(C)(C)O2 (stereo partly shown) [Δ(9)-tetrahydrocannabinolic acid] | sol | sol. alcohols | sol | –
CCCCCc1cc(O)c2c(c1)OC(C)(C)c1ccc(C)cc1-2 [cannabinol (CBN), cannabinol] | – | sol. MeOH, EtOH, lipids, non-polar organic solvents | insol. | –
C=C(C)C1CCC2(C)OC2C1 (stereo not shown) [limonene oxide] | – | sol. alcohols, organic solvents (ethers, halocarbons) | insol. | –
CCCCCc1cc(O)c2c(c1)OC(C)(C)[C@@H]1CCC(C)=CC21 (stereo partly shown) [Δ(9)-tetrahydrocannabinol (Δ(9)-THC), Δ(9)-tetrahydrocannabinol, reference compound] | – | sol. MeOH, EtOH sol. lipids sol. non-polar organic solvents | – | 2.8 µg/mL (≈ 8.9 µM)
C=C(C)C1CC=C(C)CC1 (stereo not shown) [limonene] | – | sol. alcohols, organic solvents (ethers, halocarbons), hydrocarbons | insol. | –
CC12CCC(CC1)C(C)(C)O2 [1,8-cineole] | – | sol. alcohols, organic solvents (ethers, halocarbons) | insol. | –
C=C(C)C1CC=C(C)C(=O)C1 (stereo not shown) [carvone] | – | sol. alcohols, organic solvents (ethers, halocarbons) | insol. | –
CC(C)=C1CC[C@@H](C)CC1=O [pulegone] | – | sol. alcohols, organic solvents (ethers, halocarbons) | insol. | –
CC1=CCC(O)(C(C)C)CC1 (stereo not shown) [terpinen-4-ol] | – | sol. alcohols, organic solvents (ethers, halocarbons) | insol. | –
CCCCCc1cc(O)c(C/C=C(\C)CCC=C(C)C)c(O)c1C(=O)O [cannabigerolic acid (CBGA), cannabigerolic acid] | sol | sol. alcohols | sol | –
CCCCCc1cc2c(c(O)c1C(=O)O)-c1cc(C)ccc1C(C)(C)O2 [cannabinolic acid (CBNA), cannabinolic acid] | sol | sol. alcohols | sol | –
fenchone | – | sol. alcohols, organic solvents (ethers, halocarbons) | insol. | –
CCCc1cc(O)c2c(c1)OC(C)(C)[C@@H]1CCC(C)=CC21 (stereo partly shown) [Δ(9)- tetrahydrocannabivarin (Δ(9)-THV), Δ(9)-tetrahydrocannabivarin] | sol | sol. alcohols | sol | –
CCCCCc1cc(O)c2c(c1)OC(C)(C)[C@@H]1CC=C(C)CC21 (stereo partly shown) [Δ(8)-tetrahydrocannabinol (Δ(8)-THC), Δ(8)-tetrahydrocannabinol] | – | sol. MeOH, EtOH sol. lipids sol. non-polar organic solvents | insol. | –
CCCCCc1cc(O)c2c(c1)OC(C)(CCC=C(C)C)C=C2 (stereo not shown) [cannabichromene (CBC), cannabichromene] | – | sol. pentane | insol. | –
C=C1CCC2OC2(C)CC[C@H]2[C@H]1CC2(C)C (stereo partly drawn) [β-caryophyllene epoxide] | – | sol. alcohols, organic solvents (ethers, halocarbons) | insol. | –
CCCCCc1cc2c(c(O)c1C(=O)O)C1CC(C)=CC[C@H]1C(C)(C)O2 (stereo partly shown) [Δ(8)-tetrahydrocannabinolic acid] | sol | sol. alcohols | sol | –
C=CC(=C)CCC=C(C)C [β-myrcene] | – | – | insol. | –
COc1cc(-c2cc(=O)c3c(O)c(CC=C(C)C)c(O)cc3o2)ccc1O [cannaflavin B] | sol. | sol. alcohols, ethers, halocarbons | insol. | –
C[C@@H]1CCC2(OC2(C)C)C(=O)C1 (stereo partly shown) [pulegone-1,2epoxide] | – | sol. alcohols, organic solvents (ethers, halocarbons) | insol. | –
Cc1ccc(C(C)C)cc1O [carvacrol] | – | sol. alcohols, organic solvents (ethers, halocarbons) | sp. sol. | –
CCCCCc1cc(O)c(C/C=C(\C)CCC=C(C)C)c(O)c1 [cannabigerol (CBG), cannabigerol] | – | sol. pentane | insol. | –
C=C(C)C1CC=C(C)CC1c1c(O)cc(CCCCC)c(C(=O)O)c1O (stereo not shown) [Δ(8)-tetrahydrocannabidiolic acid] | sol | sol. alcohols | sol | –
COc1cc(-c2cc(=O)c3c(O)c(C/C=C(\C)CCC=C(C)C)c(O)cc3o2)ccc1O [cannaflavin A] | sol. | sol. alcohols, ethers, halocarbons | insol. | –
CCCCCc1cc2c(c(O)c1C(=O)O)C=CC(C)(CCC=C(C)C)O2 (stereo not shown) [cannabichromenic acid (CBCA), cannabichromenic acid] | sol | sol. alcohols | sol | –
Cc1ccc(C(C)C)cc1 [p-cymene] | – | sol. alcohols, organic solvents (ethers, halocarbons), hydrocarbons | insol. | –
C=C(C)C1CC=C(C)CC1c1c(O)cc(CCCCC)cc1O (stereo not shown) [Δ(8)-tetrahydrocannabidiol (Δ(8)-CBD), Δ(8)-tetrahydrocannabidiol] | – | sol. pentane | insol. | –
